Measured values published in US20120245137A1 (Zalicus Pharmaceuticals Ltd., priority 2009, published 2012).

How the values were obtained:
Format in all cases: cell-based
[1] = target: N-type calcium channel subunits (α1B, α2δ, and β3a) (Homo sapiens, UniProt Q00975); experiment: Block of Cav2.2 channel, whole cell voltage clamp, manual and PatchXpress; conditions: Table 5; table follows Assay Example 3 (whole cell voltage clamp / PatchXpress); assay not given
Outline: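 Percent block taken as current amplitude ratio with versus without compound, applied in rising doses; IC50 fitted where one cell received multiple doses. Protocol: 50 ms pulses to +20 mV at 0.067 Hz from […] or −90 mV holding; P/n leak subtraction, no junction-potential correction; manual and PatchXpress recordings.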

[2] = target: human α1H T-type channels (Homo sapiens, UniProt O95180); experiment: T-type calcium channel block, whole cell patch clamp, α1H; conditions: HEK cells stably expressing human α1H; mainly non-inactivated protocol; values above 10,000 nM represented as 10000
Outline: (§1)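 Using standard patch-clamp, T-type currents were recorded from stably transfected human α1G or α1H HEK 293 cells. Separate non-inactivating and inactivation voltage protocols distinguished resting from voltage-dependent block by locally applied compound in 0.1-0.01% DMSO.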

[3] = target: human α1G T-type channels (Homo sapiens, UniProt O43497); experiment: T-type calcium channel block, whole cell patch clamp, α1G; conditions: HEK cells stably expressing human α1G; mainly non-inactivated protocol; values above 10,000 nM represented as 10000
Outline: as §1

human α1G T-type channels, sequence (O43497 whole entry): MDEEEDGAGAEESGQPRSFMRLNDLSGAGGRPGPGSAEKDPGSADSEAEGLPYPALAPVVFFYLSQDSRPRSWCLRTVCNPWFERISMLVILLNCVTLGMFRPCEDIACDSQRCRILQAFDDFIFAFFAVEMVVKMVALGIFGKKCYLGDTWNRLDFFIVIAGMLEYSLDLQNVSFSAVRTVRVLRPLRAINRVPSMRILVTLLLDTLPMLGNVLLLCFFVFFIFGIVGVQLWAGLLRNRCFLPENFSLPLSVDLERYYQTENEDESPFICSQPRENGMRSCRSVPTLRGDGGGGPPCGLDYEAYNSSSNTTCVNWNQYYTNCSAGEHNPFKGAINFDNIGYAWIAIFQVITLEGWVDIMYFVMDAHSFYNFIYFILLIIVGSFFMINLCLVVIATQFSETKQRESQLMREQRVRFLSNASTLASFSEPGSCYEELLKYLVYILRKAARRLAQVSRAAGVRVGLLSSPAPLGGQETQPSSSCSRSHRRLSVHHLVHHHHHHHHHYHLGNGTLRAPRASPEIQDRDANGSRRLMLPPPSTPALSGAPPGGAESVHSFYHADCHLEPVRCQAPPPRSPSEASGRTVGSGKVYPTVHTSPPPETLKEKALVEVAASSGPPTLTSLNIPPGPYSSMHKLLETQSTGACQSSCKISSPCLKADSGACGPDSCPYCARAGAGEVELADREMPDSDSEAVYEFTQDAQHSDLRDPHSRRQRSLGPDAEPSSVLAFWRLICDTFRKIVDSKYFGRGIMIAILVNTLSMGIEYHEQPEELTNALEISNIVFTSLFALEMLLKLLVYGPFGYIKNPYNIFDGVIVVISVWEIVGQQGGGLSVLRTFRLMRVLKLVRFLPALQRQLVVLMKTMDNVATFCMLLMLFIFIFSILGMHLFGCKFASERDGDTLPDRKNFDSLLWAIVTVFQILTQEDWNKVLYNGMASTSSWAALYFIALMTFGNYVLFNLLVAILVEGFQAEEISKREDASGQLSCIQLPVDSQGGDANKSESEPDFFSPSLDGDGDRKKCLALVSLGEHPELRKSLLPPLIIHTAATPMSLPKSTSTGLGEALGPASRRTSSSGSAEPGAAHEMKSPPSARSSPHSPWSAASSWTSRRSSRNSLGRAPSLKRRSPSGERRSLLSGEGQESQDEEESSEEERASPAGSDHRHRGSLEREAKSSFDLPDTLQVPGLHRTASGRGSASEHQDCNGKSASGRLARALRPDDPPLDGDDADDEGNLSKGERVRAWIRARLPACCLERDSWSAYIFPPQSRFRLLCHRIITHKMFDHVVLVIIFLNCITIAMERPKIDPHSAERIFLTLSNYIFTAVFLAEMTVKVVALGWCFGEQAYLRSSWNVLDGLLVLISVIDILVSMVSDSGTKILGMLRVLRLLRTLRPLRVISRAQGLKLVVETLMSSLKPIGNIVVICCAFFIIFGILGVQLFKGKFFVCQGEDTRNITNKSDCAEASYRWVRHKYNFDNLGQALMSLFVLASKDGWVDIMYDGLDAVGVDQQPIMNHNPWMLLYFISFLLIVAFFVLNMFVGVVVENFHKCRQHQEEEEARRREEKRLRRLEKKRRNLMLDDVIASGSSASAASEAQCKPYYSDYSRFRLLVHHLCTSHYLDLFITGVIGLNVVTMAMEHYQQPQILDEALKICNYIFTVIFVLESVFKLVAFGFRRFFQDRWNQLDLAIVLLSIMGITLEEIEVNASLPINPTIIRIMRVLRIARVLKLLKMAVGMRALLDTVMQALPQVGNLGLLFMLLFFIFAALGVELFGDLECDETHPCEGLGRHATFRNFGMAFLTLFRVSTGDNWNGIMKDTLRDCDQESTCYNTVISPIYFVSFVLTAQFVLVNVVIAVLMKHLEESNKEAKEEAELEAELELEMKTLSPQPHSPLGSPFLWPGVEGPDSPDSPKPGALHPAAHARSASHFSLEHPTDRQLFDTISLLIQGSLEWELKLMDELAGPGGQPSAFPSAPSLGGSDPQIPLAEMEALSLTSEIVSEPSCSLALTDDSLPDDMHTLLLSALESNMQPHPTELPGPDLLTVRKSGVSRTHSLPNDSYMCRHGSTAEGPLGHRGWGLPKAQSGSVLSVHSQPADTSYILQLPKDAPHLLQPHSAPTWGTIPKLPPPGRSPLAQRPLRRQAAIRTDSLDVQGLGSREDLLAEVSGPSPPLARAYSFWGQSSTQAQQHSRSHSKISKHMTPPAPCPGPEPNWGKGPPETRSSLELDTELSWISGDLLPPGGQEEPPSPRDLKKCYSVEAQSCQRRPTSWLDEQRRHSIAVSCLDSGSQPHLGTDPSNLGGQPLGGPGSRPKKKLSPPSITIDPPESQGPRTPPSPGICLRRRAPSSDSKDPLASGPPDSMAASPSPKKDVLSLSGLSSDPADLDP
human α1H T-type channels, sequence (O95180 whole entry): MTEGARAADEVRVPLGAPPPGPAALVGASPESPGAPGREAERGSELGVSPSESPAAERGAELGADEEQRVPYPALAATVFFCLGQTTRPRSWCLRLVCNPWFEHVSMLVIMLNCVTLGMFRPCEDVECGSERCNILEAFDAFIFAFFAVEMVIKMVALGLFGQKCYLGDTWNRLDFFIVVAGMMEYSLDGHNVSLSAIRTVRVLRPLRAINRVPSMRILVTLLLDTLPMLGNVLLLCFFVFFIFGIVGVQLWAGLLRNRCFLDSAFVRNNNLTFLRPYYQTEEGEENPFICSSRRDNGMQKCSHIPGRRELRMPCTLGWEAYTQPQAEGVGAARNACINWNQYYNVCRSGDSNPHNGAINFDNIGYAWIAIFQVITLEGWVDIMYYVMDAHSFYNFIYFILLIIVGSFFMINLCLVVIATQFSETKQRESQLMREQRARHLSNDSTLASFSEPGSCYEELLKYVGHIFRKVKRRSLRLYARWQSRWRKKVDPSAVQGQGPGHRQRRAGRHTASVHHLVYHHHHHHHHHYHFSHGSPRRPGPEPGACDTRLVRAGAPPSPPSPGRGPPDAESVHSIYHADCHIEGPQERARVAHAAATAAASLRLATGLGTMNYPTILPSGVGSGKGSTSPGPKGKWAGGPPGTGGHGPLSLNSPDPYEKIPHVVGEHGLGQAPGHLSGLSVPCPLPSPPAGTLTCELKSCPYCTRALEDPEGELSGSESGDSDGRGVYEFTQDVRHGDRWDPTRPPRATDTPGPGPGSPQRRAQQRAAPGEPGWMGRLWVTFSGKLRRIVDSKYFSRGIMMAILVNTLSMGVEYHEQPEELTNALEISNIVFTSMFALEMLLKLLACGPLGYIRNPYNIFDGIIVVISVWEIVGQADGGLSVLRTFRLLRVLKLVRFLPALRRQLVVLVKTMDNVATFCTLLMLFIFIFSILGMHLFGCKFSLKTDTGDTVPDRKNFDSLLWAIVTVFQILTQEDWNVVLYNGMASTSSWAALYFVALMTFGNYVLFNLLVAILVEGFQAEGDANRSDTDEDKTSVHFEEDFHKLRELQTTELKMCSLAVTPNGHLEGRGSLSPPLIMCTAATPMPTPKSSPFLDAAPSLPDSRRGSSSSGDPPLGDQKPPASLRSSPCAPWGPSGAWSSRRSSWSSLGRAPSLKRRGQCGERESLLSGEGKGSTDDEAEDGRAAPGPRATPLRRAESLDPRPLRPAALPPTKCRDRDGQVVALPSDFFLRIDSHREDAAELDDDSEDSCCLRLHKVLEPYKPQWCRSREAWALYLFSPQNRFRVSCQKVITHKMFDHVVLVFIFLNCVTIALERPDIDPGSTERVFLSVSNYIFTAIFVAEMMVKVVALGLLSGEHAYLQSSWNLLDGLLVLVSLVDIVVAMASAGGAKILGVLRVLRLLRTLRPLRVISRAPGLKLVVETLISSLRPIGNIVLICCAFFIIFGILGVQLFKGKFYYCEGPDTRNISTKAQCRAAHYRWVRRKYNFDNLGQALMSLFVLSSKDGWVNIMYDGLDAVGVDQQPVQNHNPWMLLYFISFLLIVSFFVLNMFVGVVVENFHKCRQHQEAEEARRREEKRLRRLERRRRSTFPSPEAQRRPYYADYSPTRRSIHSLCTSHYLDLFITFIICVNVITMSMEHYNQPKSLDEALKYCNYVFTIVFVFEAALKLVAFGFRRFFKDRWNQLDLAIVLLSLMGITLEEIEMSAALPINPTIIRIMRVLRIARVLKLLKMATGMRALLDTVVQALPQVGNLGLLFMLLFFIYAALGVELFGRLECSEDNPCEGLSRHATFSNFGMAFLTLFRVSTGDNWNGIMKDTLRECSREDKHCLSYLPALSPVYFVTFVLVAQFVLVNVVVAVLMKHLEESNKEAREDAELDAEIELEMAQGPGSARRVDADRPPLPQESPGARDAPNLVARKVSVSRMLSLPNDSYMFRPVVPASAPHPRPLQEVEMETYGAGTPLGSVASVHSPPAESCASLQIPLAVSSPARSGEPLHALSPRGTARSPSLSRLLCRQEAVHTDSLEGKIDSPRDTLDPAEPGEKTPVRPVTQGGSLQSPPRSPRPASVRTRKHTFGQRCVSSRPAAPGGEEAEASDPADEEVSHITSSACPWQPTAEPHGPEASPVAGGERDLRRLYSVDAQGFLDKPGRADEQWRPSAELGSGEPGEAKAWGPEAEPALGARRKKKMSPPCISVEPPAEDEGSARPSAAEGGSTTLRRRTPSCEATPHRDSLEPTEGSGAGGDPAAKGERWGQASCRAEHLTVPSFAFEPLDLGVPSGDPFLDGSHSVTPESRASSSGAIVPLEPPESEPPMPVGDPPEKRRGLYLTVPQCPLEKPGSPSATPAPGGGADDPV

IC50 [1]	IC50 [2]	IC50 [3]	Compound
630 nM	0.44 µM	1.19 µM	O=C(N[C@H]1CC[C@](F)(S(=O)(=O)c2cccc(C(F)(F)F)c2)CC1)c1cc(C(F)(F)F)ccn1 [Compound 79, N-((1R,4R)-4-fluoro-4-(3-(trifluoromethyl)phenylsulfonyl)cyclohexyl)-4-(trifluoromethyl)picolinamide]
590 nM	0.51 µM	1.03 µM	O=C(CN[C@H]1CC[C@H](S(=O)(=O)c2cccc(C(F)(F)F)c2)CC1)NC1CCCCC1 [Compound 76, N-cyclohexyl-2-((1R,4R)-4-(3-(trifluoromethyl)phenylsulfonyl)cyclohexylamino)acetamide]
530 nM	1.05 µM	2.54 µM	O=C(CCC(F)(F)F)N[C@H]1CC[C@@](F)(S(=O)(=O)c2cccc(C(F)(F)F)c2)CC1 [Compound 274, 4,4,4-trifluoro-N-((1S,4S)-4-fluoro-4-(3-(trifluoromethyl)phenylsulfonyl)cyclohexyl)butanamide]
480 nM	2.86 µM	1.51 µM	O=C(N[C@H]1CC[C@@H](S(=O)(=O)c2cccc(C(F)(F)F)c2)CC1)c1cc(C(F)(F)F)ccn1 [Compound 42, 4-(trifluoromethyl)-N-((1S,4S)-4-(3-(trifluoromethyl)phenylsulfonyl)cyclohexyl)picolinamide]
3120 nM	1.54 µM	2.41 µM	Cn1nc(C(F)(F)F)cc1C(=O)NC1(C)CCC(S(=O)(=O)c2cccc(C(F)(F)F)c2)CC1 (stereo not drawn) [Compound 307, 1-methyl-N-(1-methyl-4-(3-(trifluoromethyl)phenylsulfonyl)cyclohexyl)-3-(tritluoromethyl)-1H-pyrazole-5-carboxamide]
2320 nM	1.79 µM	5.39 µM	COc1cc(F)cc(C(=O)N[C@H]2CC[C@H](CS(=O)(=O)c3cccc(C(F)(F)F)c3)CC2)c1 [Compound 100, 3-fluoro-5-methoxy-N-((1R,4R)-4-((3-(trifluoromethyl)phenylsulfonyl)methyl)cyclohexyl)benzamide]
2520 nM	1.03 µM	1.13 µM	O=C(NC1CCC(S(=O)(=O)c2cccc(C(F)(F)F)c2)CC1)c1cnc(C(F)(F)F)nc1 (stereo not drawn) [Compound 9, 2-(trifluoromethyl)-N-(4-(3-(trifluoromethyl)phenylsulfonyl)cyclohexyl)pyrimidine-5-carboxamide]
1250 nM	0.67 µM	1.35 µM	N-tert-butyl-2-((1S,4S)-4-((3- (trifluoromethyl)phenylsulfonyl) methyl)cyclohexylamino)acetamide [Compound 144]
260 nM	1.42 µM	2.33 µM	CC1(S(=O)(=O)c2cccc(C(F)(F)F)c2)CCC(NC(=O)CNC2CCCCC2)CC1 (stereo not drawn) [Compound 17, 2-(cyclohexylamino)-N-(4-methyl-4-(3-(trifluoromethyl)phenylsulfonyl)cyclohexyl)acetamide]
850 nM	0.35 µM	0.9 µM	O=C(NC[C@H]1C[C@H](S(=O)(=O)c2cccc(C(F)(F)F)c2)C1)c1ccnn1CC(F)(F)F [Compound 367, 1-(2,2,2-trifluoroethyl)-N-(((1R,3R)-3-(3-(trifluoromethyl)phenylsulfonyl)cyclobutyl)methyl)-1H-pyrazole-5-carboxamide]
700 nM	0.43 µM	0.28 µM	O=S(=O)(N[C@H]1CC[C@@](F)(S(=O)(=O)c2cccc(C(F)(F)F)c2)CC1)c1cccc(C(F)(F)F)c1 [Compound 300, N-((1S,4S)-4-fluoro-4-(3-(trifluoromethyl)phenylsulfonyl)cyclohexyl)-3-(trifluoromethyl) benzenesulfonamide]
890 nM	> 10 µM	> 10 µM	COc1cc(F)cc(C(=O)N[C@H]2C[C@H](CS(=O)(=O)c3cccc(C(F)(F)F)c3)C2)c1 [Compound 349, 3-fluoro-5-methoxy-N-((1R,3R)-3-((3-(trifluoromethyl)phenylsulfonyl)methyl)cyclobutyl)benzamide]
160 nM	> 10 µM	> 10 µM	O=C(NC[C@H]1C[C@H](S(=O)(=O)c2cccc(C(F)(F)F)c2)C1)c1ccc(Cl)c(Cl)c1 [Compound 369, 3,4-dichloro-N-(((1R,3R)-3-(3-(trifluoromethyl)phenylsulfonyl)cyclobutyl)methyl)benzamide]
960 nM	4.74 µM	> 10 µM	O=C(NC[C@H]1C[C@@H](S(=O)(=O)c2cccc(C(F)(F)F)c2)C1)c1cn2cc(C(F)(F)F)ccc2n1 [Compound 384, 6-(trifluoromethyl)-N-(((1S,3S)-3-(3-(trifluoromethyl)phenylsulfonyl)cyclobutyl)methyl)imidazo[l,2-a]pyridine-2-carboxamide]
1650 nM	8.18 µM	> 10 µM	O=C(Nc1ccc(C(F)(F)F)cn1)[C@H]1C[C@@H](S(=O)(=O)c2cccc(C(F)(F)F)c2)C1 [Compound 416, (1S,3S)-3-(3-(trifluoromethyl)phenylsulfonyl)-N-(5-(trifluoromethyl)pyridin-2-yl)cyclobutanecarboxamide]

Further lines, the compound ahead of its results:

Compound	IC50 [1]	IC50 [2]	IC50 [3]
O=C(NC[C@H]1C[C@H](S(=O)(=O)c2cccc(C(F)(F)F)c2)C1)c1ccc(C(F)(F)F)cn1 [Compound 358, 5-(trifluoromethyl)-N-(((1R,3R)-3-(3-(trifluoromethyl)phenylsulfonyl)cyclobutyl)methyl)picolinamide]	190 nM	> 10 µM	8.37 µM
O=C(N[C@H]1CC[C@@](F)(S(=O)(=O)c2cccc(C(F)(F)F)c2)CC1)[C@@H]1CC[C@H](c2ccccc2)N1 [Compound 289]	540 nM	1.04 µM	1.4 µM
CC(C)(C)NC(=O)CN[C@H]1CC[C@](F)(S(=O)(=O)c2cccc(C(F)(F)F)c2)CC1 [Compound 28, N-tert-butyl-2-((1R,4R)-4-fluoro-4-(3-(trifluoromethyl)phenylsulfonyl)cyclohexylamino)acetamide]	940 nM	1.27 µM	1.23 µM
Cn1nc(C(F)(F)F)cc1C(=O)N[C@H]1CC[C@@](F)(S(=O)(=O)c2cccc(OC(F)(F)F)c2)CC1 [Compound 255, N-((1S,4S)-4-fluoro-4-(3-(trifluoromethoxy)phenylsulfonyl)cyclohexyl)-1-methyl-3-(trifluoromethyl)-1H-pyrazole-5-carboxamide]	210 nM	3.32 µM	2.01 µM
CS(=O)(=O)c1nc(C(F)(F)F)ccc1C(=O)N[C@H]1CC[C@@](F)(S(=O)(=O)c2cccc(OC(F)(F)F)c2)CC1 [Compound 257]	680 nM	9.02 µM	6.9 µM
O=C(N[C@H]1CC[C@H](S(=O)(=O)c2cccc(C(F)(F)F)c2)CC1)c1ccc(C(F)(F)F)cn1 [Compound 62, 5-(trifluoromethyl)-N-((1R,4R)-4-(3-(trifluoromethyl)phenylsulfonyl)cyclohexyl)picolinamide]	3480 nM	0.55 µM	1.08 µM
Cn1nc(C(F)(F)F)cc1C(=O)NCC1(C)CCC(S(=O)(=O)c2cccc(C(F)(F)F)c2)CC1 (stereo not drawn) [Compound 206, 1-methyl-N-((1-methyl-4-(3-(trifluoromethyl)phenylsulfonyl)cyclohexyl)methyl)-3-(trifluoromethyl)-1H-pyrazole-5-carboxamide]	420 nM	2.55 µM	3.52 µM
CC([C@H]1C[C@H](NC(=O)c2ccc(F)c(Cl)c2)C1)S(=O)(=O)c1cccc(C(F)(F)F)c1 (stereo partly drawn) [Compound 434, 3-chloro-4-fluoro-N-((1R,3R)-3-( (R)-1-(3-(trifluoromethyl)phenylsulfonyl)ethyl)cyclobutyl)benzamide]	210 nM	0.68 µM	1.13 µM
O=S(=O)(N[C@H]1CC[C@@](F)(S(=O)(=O)c2cccc(C(F)(F)F)c2)CC1)c1ccc(C(F)(F)F)cc1Cl [Compound 297, 2-chloro-N-((1S,4S)-4-fluoro-4-(3-(trifluoromethyl)phenylsulfonyl)cyclohexyl)-4-(trifluoromethyl) benzenesulfonamide]	720 nM	0.3 µM	0.85 µM
O=C(NC[C@H]1C[C@@H](S(=O)(=O)c2cccc(C(F)(F)F)c2)C1)c1ccc(F)c(Cl)c1 [Compound 379, 3-chloro-4-fluoro-N-(((1S,3S)-3-(3-(trifluoromethyl)phenylsulfonyl)cyclobutyl)methyl)benzamide]	830 nM	0.3 µM	1.81 µM
O=C(CN[C@H]1CC[C@@H](S(=O)(=O)c2cccc(C(F)(F)F)c2)CC1)NCC(F)(F)F [Compound 48, N-(2,2,2-trifluoroethyl)-2-((1S,4S)-4-(3-(trifluoromethyl)phenylsulfonyl)cyclohexylamino)acetamide]	1650 nM	2.33 µM	1.43 µM
CS(=O)(=O)c1ccc(C(=O)N[C@H]2CC[C@@](F)(S(=O)(=O)c3cccc(C(F)(F)F)c3)CC2)cc1 [Compound 271, N-((1S,4S)-4-fluoro-4-(3-(trifluoromethyl)phenylsulfonyl)cyclohexyl)-4-(methylsulfonyl)benzamide]	8160 nM	1.65 µM	2.63 µM
CC(C)(C)NC(=O)CN[C@H]1CC[C@@](F)(S(=O)(=O)c2cccc(C(F)(F)F)c2)CC1 [Compound 27, N-tert-butyl-2-((1S,4S)-4-fluoro-4-(3-(trifluoromethyl)phenylsulfonyl)cyclohexylamino)acetamide]	250 nM	0.72 µM	0.76 µM
